{"source": "ChEMBL document CHEMBL1138916", "about": "“Design and synthesis of the first generation of dithiolane thiazolidinedione- and phenylacetic acid-based PPARgamma agonists” (J Med Chem, 2006)", "key": {"[1]": {"target": "T1, Peroxisome proliferator-activated receptor gamma (Homo sapiens) (UniProt P37231)", "T1 sequence (whole entry)": "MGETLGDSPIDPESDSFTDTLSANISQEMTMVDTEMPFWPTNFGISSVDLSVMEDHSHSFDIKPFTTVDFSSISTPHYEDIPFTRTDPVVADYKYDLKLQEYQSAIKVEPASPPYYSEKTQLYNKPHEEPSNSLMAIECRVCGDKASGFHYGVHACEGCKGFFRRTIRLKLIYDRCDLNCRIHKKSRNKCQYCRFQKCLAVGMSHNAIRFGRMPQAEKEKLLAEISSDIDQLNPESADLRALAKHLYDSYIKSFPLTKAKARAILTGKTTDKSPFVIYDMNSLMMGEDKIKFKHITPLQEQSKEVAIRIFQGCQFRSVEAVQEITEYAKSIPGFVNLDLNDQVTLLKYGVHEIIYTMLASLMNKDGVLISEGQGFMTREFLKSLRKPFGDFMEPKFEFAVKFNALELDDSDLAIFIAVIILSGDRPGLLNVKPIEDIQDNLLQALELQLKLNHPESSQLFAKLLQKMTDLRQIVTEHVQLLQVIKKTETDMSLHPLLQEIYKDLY", "test": "Transactivation of PPARgamma up to 30 uM in CV1 cells", "format": "functional, cell-based", "settings": "CV-1"}, "[2]": {"target": "T2, Peroxisome proliferator-activated receptor gamma (Homo sapiens, UniProt P37231)", "T2 sequence (P37231 whole entry)": "T1 sequence (whole entry)", "description": "Transactivation of PPARgamma in CV1 cells"}, "[3]": {"target": "T1, Peroxisome proliferator-activated receptor gamma (Homo sapiens)", "test": "Transactivation of PPARgamma at 10 uM in CV1 cells", "format": "functional, cell-based", "settings": "CV-1"}, "[4]": {"system": "Rattus norvegicus", "test": "Reduction in glucose level in Zucker fa/fa rat at 100 mg/kg relative to control", "format": "functional"}, "[5]": {"system": "Keratinocyte", "test": "Antiproliferative activity against human keratinocytes", "format": "functional, cell-based"}, "[6]": {"system": "T-cell", "test": "Inhibition of PHA/PMA-induced IL2 production in human T lymphocytes", "format": "functional"}, "[7]": {"system": "HT-29", "test": "Antiproliferative activity against human HT29 cell line", "format": "functional, cell-based"}, "[8]": {"system": "MCF7", "test": "Antiproliferative activity against human MCF7 cell line", "format": "functional, cell-based"}, "[9]": {"system": "T-cell", "test": "Inhibition of PHA/PMA-induced IL2 production in human T lymphocytes at 10 uM", "format": "functional, cell-based"}, "[10]": {"system": "3T3-L1", "test": "Induction of adipogenesis in mouse 3T3 L1 preadipocytes", "format": "functional, cell-based"}, "[11]": {"test": "Solubility in water", "format": "physicochemical"}, "[12]": {"system": "Rattus norvegicus", "test": "Reduction in triglycerides level in Zucker fa/fa rat at 100 mg/kg relative to control", "format": "functional", "set-up": "scale not given: the % may be the effect or the level left"}}, "note": "pEC50, pIC50: −log10 of the molar value. “And” between values parts separate entries of the source, which are not always exact repeats. Identical values can stand only once. The source made the active and inactive calls. The rule behind the calls is not given here.", "data": [{"smiles": "CN(CCOc1ccc(CC(=O)O)cc1Cl)C(=O)CCCCC1CCSS1", "note": "(stereo unspecified)", "values": [{"measurement": "Activity", "setting": "[1]", "result": "inactive"}]}, {"smiles": "CN(C(=O)CCCCC1CCSS1)c1ccc(CC2SC(=O)NC2=O)cc1", "note": "(stereo unspecified)", "values": [{"measurement": "Activity", "setting": "[1]", "result": "inactive"}]}, {"smiles": "CC(=O)SCCC(CCCCC(=O)N(C)CCOc1ccc(CC2SC(=O)NC2=O)cc1)SC(C)=O", "note": "(stereo unspecified)", "values": [{"measurement": "pEC50", "setting": "[2]", "result": 7.41}, {"measurement": "Activity", "setting": "[3]", "result": 150}]}, {"smiles": "CN(CCOc1ccc(CC2SC(=O)NC2=O)cc1)C(=O)CCCCC1CCSS1", "note": "(stereo unspecified)", "values": [{"measurement": "Activity", "setting": "[4]", "result": 180, "unit": "mg/dL"}, {"measurement": "pIC50", "setting": "[5]", "result": 6.22}, {"measurement": "Inhibition", "setting": "[6]", "result": 92, "unit": "%"}, {"measurement": "pIC50", "setting": "[7]", "result": 5.00}, {"measurement": "pEC50", "setting": "[2]", "result": 7.82}, {"measurement": "pIC50", "setting": "[8]", "result": 4.82}, {"measurement": "Activity", "setting": "[9]", "result": "Active"}, {"measurement": "Activity", "setting": "[10]", "result": "Active"}, {"measurement": "solubility", "setting": "[11]", "result": 39, "unit": "µg/mL"}, {"measurement": "Activity", "setting": "[12]", "result": "83% and 54 mg/dl"}]}, {"smiles": "CN(CCOc1ccc(CC2SC(=O)NC2=O)cc1)C(=O)CCCCC(S)CCSC(=O)CCC(=O)O", "note": "(stereo unspecified)", "values": [{"measurement": "pEC50", "setting": "[2]", "result": 7.70}, {"measurement": "Activity", "setting": "[3]", "result": 177}]}, {"smiles": "CC(=O)SC(CCCCC(=O)N(C)CCOc1ccc(CC2SC(=O)NC2=O)cc1)CCSC(=O)CCC(=O)O", "note": "(stereo unspecified)", "values": [{"measurement": "pEC50", "setting": "[2]", "result": 6.82}, {"measurement": "Activity", "setting": "[3]", "result": 168}]}, {"smiles": "CN(CCOc1ccc(CC2SC(=O)NC2=O)cc1)C(=O)CCC1CCSS1", "note": "(stereo unspecified)", "values": [{"measurement": "Activity", "setting": "[1]", "result": "inactive"}]}, {"smiles": "COC(=O)Cc1ccc(OCCN(C)C(=O)CCCCC2CCSS2)c(Cl)c1", "note": "(stereo unspecified)", "values": [{"measurement": "Activity", "setting": "[1]", "result": "inactive"}]}, {"smiles": "CN(CCOc1ccc(CC2SC(=O)NC2=O)cc1)C(=O)CCCCC(S)CCS", "note": "(stereo unspecified)", "values": [{"measurement": "Inhibition", "setting": "[6]", "result": 80, "unit": "%"}, {"measurement": "pEC50", "setting": "[2]", "result": 7.12}, {"measurement": "Activity", "setting": "[3]", "result": 129}, {"measurement": "Activity", "setting": "[9]", "result": "Active"}]}, {"smiles": "CN(CCCCC1CCSS1)CCOc1ccc(CC2SC(=O)NC2=O)cc1", "note": "(stereo unspecified) [listing 1 of 3 here]", "values": [{"measurement": "pEC50", "setting": "[2]", "result": 4.96}]}, {"smiles": "CN(CCCCC1CCSS1)CCOc1ccc(CC2SC(=O)NC2=O)cc1", "note": "(stereo unspecified) [listing 2 of 3 here]", "values": [{"measurement": "pEC50", "setting": "[2]", "result": 4.55}]}, {"smiles": "CC(=O)SC(CCCCC(=O)N(C)CCOc1ccc(CC2SC(=O)NC2=O)cc1)CCSC(=O)CN", "note": "(stereo unspecified)", "values": [{"measurement": "pEC50", "setting": "[2]", "result": 6.71}, {"measurement": "Activity", "setting": "[3]", "result": 138}]}, {"smiles": "O=C(CCCCC1CCSS1)NCCOc1ccc(CC2SC(=O)NC2=O)cc1", "note": "(stereo unspecified)", "values": [{"measurement": "pEC50", "setting": "[2]", "result": 5.00}]}, {"smiles": "CN(CCCOc1ccc(CC(=O)O)cc1Cl)C(=O)CCCCC1CCSS1", "note": "(stereo unspecified)", "values": [{"measurement": "pEC50", "setting": "[2]", "result": 4.91}]}, {"smiles": "CN(CCCCC1CCSS1)CCOc1ccc(CC2SC(=O)NC2=O)cc1", "note": "(stereo unspecified) [listing 3 of 3 here]", "values": [{"measurement": "pEC50", "setting": "[2]", "result": 4.96}]}, {"smiles": "CN(CCOc1ccc(CC2SC(=O)NC2=O)cc1)C(=O)CCCCC(CCSC(=O)CCC(=O)O)SC(=O)CCC(=O)O", "note": "(stereo unspecified)", "values": [{"measurement": "pEC50", "setting": "[2]", "result": 7.10}, {"measurement": "Activity", "setting": "[3]", "result": 60}]}, {"smiles": "CN(CCOc1ccc(CC2SC(=O)NC2=O)cc1)C(=O)CCCCC(CCSC(=O)CN)SC(=O)CN.Cl.Cl", "note": "(stereo unspecified)", "values": [{"measurement": "pIC50", "setting": "[5]", "result": 6.00}, {"measurement": "Inhibition", "setting": "[6]", "result": 92, "unit": "%"}, {"measurement": "pIC50", "setting": "[7]", "result": 5.10}, {"measurement": "pEC50", "setting": "[2]", "result": 7.22}, {"measurement": "Activity", "setting": "[3]", "result": 71}, {"measurement": "pIC50", "setting": "[8]", "result": 4.60}, {"measurement": "Activity", "setting": "[9]", "result": "Active"}, {"measurement": "Activity", "setting": "[10]", "result": "Active"}]}, {"smiles": "COC(=O)Cc1ccc(OCCCN(C)C(=O)CCCCC2CCSS2)c(Cl)c1", "note": "(stereo unspecified)", "values": [{"measurement": "pEC50", "setting": "[2]", "result": 4.73}]}, {"smiles": "CN(CCOc1ccc(CC2SC(=O)NC2=O)cc1)c1ccccn1", "note": "(stereo unspecified) [ROSIGLITAZONE]", "values": [{"measurement": "pIC50", "setting": "[5]", "result": 5.10}, {"measurement": "Inhibition", "setting": "[6]", "result": 75, "unit": "%"}, {"measurement": "pIC50", "setting": "[7]", "result": 4.35}, {"measurement": "pIC50", "setting": "[8]", "result": "< 4.30"}]}]}
